US5821222A, “Cyclic depsipeptides having 18 ring atoms for combating endoparasites” (Bayer Aktiengesellschaft, priority 1992, dated 1998)

Tests used:
Trichinella spiralis = Trichinella spiralis in vitro; type: cell-based; conditions: Trichina larvae from mouse muscle, incubation 5 days at 19° C.; tested at 100, 10 and 1 μm/ml
Experimental: Trichinella spiralis in vitro
(§1) Trichina lavae are isolated from mice's muscle and washed in 0.9% NaCl supplemented with 20 μg/ml sisomycin and 2 μg/ml clotrimazole. The actual incubation of approximately 20 trichinae per measurement is carried out in 2 ml of a solution composed of 10 g of Bacto Casitone, 5 g of yeast (yeast extract), 2.5 g of glucose, 0.4 g of KH2 PO4 and 0.4 g of K2 HPO4 per 500 ml, pH 7.2, containing 10 μm/ml of sisomycin and 1 μm/ml of clotrimazole. 10 mg of the substance to be tested are dissolved in 0.5 ml of DMSO, and such an amount is added to the incubation medium that the end concentration is 100, 10 and 1 μm/ml. The experiment is evaluated after incubation for 5 days at 19° C.

Heterakis spumose = Heterakis spumose in vitro test (mobility and egg excretion); type: cell-based; conditions: 10 female nematodes, incubation 3 days at 37° C.
Experimental: as §1
Female Heterakis spumose nematodes are isolated from the colon and caecum of mice. 10 females are incubated for 3 days at 37° C. in 1.5 ml of medium used for the Trichinella spiarlis in-vitro test. The addition of test substances is likewise carried out as described for the trichina test. To test the anthelmintic activity, mobility and egg excretion are assessed in comparison with the control. Enniatins A1, B and B1 are active at a concentration of 10 μM/ml.

Haemonchus contortus = experiment: In vivo nematode test Haemonchus contortus/sheep; conditions: experimentally infected sheep, oral and/or intravenous; egg excretion stopped completely after treatment
Experimental: Haemonchus contortus/sheep
Shaft which have been infected experimentally with Haemonchus contortus were treated after the prepatent time of the parasite had elapsed. The active compounds were applied orally and/or intravenously in the form of the pure active compound.
The degree of effectiveness is determined by quantitatively counting the worm eggs excreted with the faeces before and after the treatment.
If the egg excretion has stopped completely after the treatment, this means that the worms were aborted or are damaged to such an extent that they no longer produce eggs (dosis effectiva).
Active compounds tested and effective dosage rates (dosis effectiva) can be seen from the table which follows: […]

SMILES | effective concentration (Trichinella spiralis) | active concentration (mobility and egg excretion compared with control) (Heterakis spumose) | Dosis effectiva (Haemonchus contortus)
CC[C@H](C)[C@H]1C(=O)O[C@H](C(C)C)C(=O)N(C)[C@@H]([C@@H](C)CC)C(=O)O[C@H](C(C)C)C(=O)N(C)[C@@H](C(C)C)C(=O)O[C@H](C(C)C)C(=O)N1C [Enniatin A1, enniatin A1] | 100 μm/ml | 10 μM/ml | –
CC[C@H](C)[C@H]1C(=O)O[C@H](C(C)C)C(=O)N(C)[C@@H](C(C)C)C(=O)O[C@H](C(C)C)C(=O)N(C)[C@@H](C(C)C)C(=O)O[C@H](C(C)C)C(=O)N1C [Enniatin B1, enniatin B1] | 100 μm/ml | 10 μM/ml | –
CC(C)[C@H]1C(=O)O[C@H](C(C)C)C(=O)N(C)[C@@H](C(C)C)C(=O)O[C@H](C(C)C)C(=O)N(C)[C@@H](C(C)C)C(=O)O[C@H](C(C)C)C(=O)N1C [Enniatin B, enniatin B] | 100 μm/ml | 10 μM/ml | –
CC[C@H](C)[C@H]1C(=O)O[C@H](C)C(=O)N(C)[C@@H]([C@@H](C)CC)C(=O)O[C@H](C)C(=O)N(C)[C@@H]([C@@H](C)CC)C(=O)O[C@H](C)C(=O)N1C [Example 1, Cyclo(N-methyl-L-isoleucyl-D-lactyl-N-methyl-L-isoleucyl-D-lactyl-N-methyl- L-isoleucyl-D-lactyl-)] | – | – | 5 mg/kg
